From PubChem BioAssay AID2060625 (Molecular Pharmacology Branch, DTP, NCI, 2025)

System: 186277-243-T-J2-PDC spheroids with HUVEC/MSC, viability
Assay: Anticancer human tumor 186277-243-T-J2-PDC patient-derived colon adenocarcinoma cell line growth inhibition [CLK]
Details: for IC50: curve of first compound; for viability, T/C: stronger effect = lower value
Outline: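 Multi-cell-type spheroids combined patient-derived tumor cells with HUVEC endothelial cells and human mesenchymal stem cells. Paired agents were dosed in half-log steps down from about clinical Cmax, or from 10 microM where Cmax was unknown.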

[1] = second compound 0.0316 µM, first compound 0.0316 µM
[2] = second compound 0.0316 µM, first compound 0.1 µM
[3] = second compound 0.0316 µM, first compound 0.316 µM
[4] = second compound 0.0316 µM, first compound 1 µM
[5] = second compound 0.0316 µM, first compound 3.16 µM
[6] = second compound 0.0316 µM, first compound 10 µM
[7] = second compound 0.1 µM, first compound 0.0316 µM
[8] = second compound 0.1 µM, first compound 0.1 µM
[9] = second compound 0.1 µM, first compound 0.316 µM
[10] = second compound 0.1 µM, first compound 1 µM
[11] = second compound 0.1 µM, first compound 3.16 µM
[12] = second compound 0.1 µM, first compound 10 µM
[13] = second compound 0.316 µM, first compound 0.0316 µM
[14] = second compound 0.316 µM, first compound 0.1 µM
[15] = second compound 0.316 µM, first compound 0.316 µM
[16] = second compound 0.316 µM, first compound 1 µM
[17] = second compound 0.316 µM, first compound 3.16 µM
[18] = second compound 0.316 µM, first compound 10 µM
[19] = second compound 1 µM, first compound 0.0316 µM
[20] = second compound 1 µM, first compound 0.1 µM
[21] = second compound 1 µM, first compound 0.316 µM
[22] = second compound 1 µM, first compound 1 µM
[23] = second compound 1 µM, first compound 3.16 µM
[24] = second compound 1 µM, first compound 10 µM
[25] = second compound 3.16 µM, first compound 0.0316 µM
[26] = second compound 3.16 µM, first compound 0.1 µM
[27] = second compound 3.16 µM, first compound 0.316 µM
[28] = second compound 3.16 µM, first compound 1 µM
[29] = second compound 3.16 µM, first compound 3.16 µM
[30] = second compound 3.16 µM, first compound 10 µM
[31] = second compound 10 µM, first compound 0.0316 µM
[32] = second compound 10 µM, first compound 0.1 µM
[33] = second compound 10 µM, first compound 0.316 µM
[34] = second compound 10 µM, first compound 1 µM
[35] = second compound 10 µM, first compound 3.16 µM
[36] = second compound 10 µM, first compound 10 µM
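Note: compound exposure lasted seven days before readout.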
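Throughout, for viability, T/C: 100% = DMSO vehicle control wells.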

## C#Cc1c(F)ccc2cc(O)cc(-c3ncc4c(N5CC6CCC(C5)N6)nc(OCC56CCCN5CC(F)C6)nc4c3F)c12 (stereo not drawn) + CNC(=O)c1ccc(Nc2nc(OC3CCCC3)c3c(-c4ccc5nc(C)oc5c4)c[nH]c3n2)c(OC)c1
Second compound 0.0316 µM
  IC50: 244 nM
Second compound 0.1 µM
  IC50: < 31.6 nM
Second compound 0.316 µM
  IC50: < 31.6 nM
Second compound 1 µM
  IC50: < 31.6 nM
Second compound 3.16 µM
  IC50: < 31.6 nM
Second compound 10 µM
  IC50: < 31.6 nM
[1]
  viability, T/C: 85.1%
[2]
  viability, T/C: 74.1%
[3]
  viability, T/C: 42.3%
[4]
  viability, T/C: 20.4%
[5]
  viability, T/C: 15.4%
[6]
  viability, T/C: 9.35%
[7]
  viability, T/C: 32.4%
[8]
  viability, T/C: 20.2%
[9]
  viability, T/C: 12.4%
[10]
  viability, T/C: 10.1%
[11]
  viability, T/C: 9.23%
[12]
  viability, T/C: 7.22%
[13]
  viability, T/C: 16.6%
[14]
  viability, T/C: 10.6%
[15]
  viability, T/C: 9.98%
[16]
  viability, T/C: 7.75%
[17]
  viability, T/C: 6.06%
[18]
  viability, T/C: 5.84%
[19]
  viability, T/C: 13.1%
[20]
  viability, T/C: 9.92%
[21]
  viability, T/C: 6.68%
[22]
  viability, T/C: 8.68%
[23]
  viability, T/C: 7.28%
[24]
  viability, T/C: 3.31%
[25]
  viability, T/C: 12%
[26]
  viability, T/C: 11.4%
[27]
  viability, T/C: 6.47%
[28]
  viability, T/C: 5.65%
[29]
  viability, T/C: 6.73%
[30]
  viability, T/C: 4.61%
[31]
  viability, T/C: 15.6%
[32]
  viability, T/C: 9.24%
[33]
  viability, T/C: 6.48%
[34]
  viability, T/C: 5.74%
[35]
  viability, T/C: 6.36%
[36]
  viability, T/C: 3.45%

## CC(CO)NC(=O)c1cc(-c2ccc(Cl)cc2)nn(-c2cnn(C)c2)c1=O (stereo not drawn) + CNC(=O)c1ccc(Nc2nc(OC3CCCC3)c3c(-c4ccc5nc(C)oc5c4)c[nH]c3n2)c(OC)c1
Second compound 0.0316 µM
  IC50: > 10000 nM
Second compound 0.1 µM
  IC50: > 10000 nM
Second compound 0.316 µM
  IC50: < 31.6 nM
Second compound 1 µM
  IC50: < 31.6 nM
Second compound 3.16 µM
  IC50: < 31.6 nM
Second compound 10 µM
  IC50: < 31.6 nM
[1]
  viability, T/C: 109%
[2]
  viability, T/C: 99.1%
[3]
  viability, T/C: 101%
[4]
  viability, T/C: 84.7%
[5]
  viability, T/C: 105%
[6]
  viability, T/C: 120%
[7]
  viability, T/C: 75.8%
[8]
  viability, T/C: 70.5%
[9]
  viability, T/C: 72.3%
[10]
  viability, T/C: 71.8%
[11]
  viability, T/C: 74%
[12]
  viability, T/C: 81.5%
[13]
  viability, T/C: 50%
[14]
  viability, T/C: 45.4%
[15]
  viability, T/C: 43.1%
[16]
  viability, T/C: 49%
[17]
  viability, T/C: 49.6%
[18]
  viability, T/C: 47.8%
[19]
  viability, T/C: 28.9%
[20]
  viability, T/C: 31.6%
[21]
  viability, T/C: 29.6%
[22]
  viability, T/C: 32.4%
[23]
  viability, T/C: 35.6%
[24]
  viability, T/C: 36%
[25]
  viability, T/C: 33.3%
[26]
  viability, T/C: 30.7%
[27]
  viability, T/C: 29.1%
[28]
  viability, T/C: 31.7%
[29]
  viability, T/C: 32%
[30]
  viability, T/C: 35%
[31]
  viability, T/C: 32.5%
[32]
  viability, T/C: 31.4%
[33]
  viability, T/C: 32%
[34]
  viability, T/C: 31.4%
[35]
  viability, T/C: 34.3%
[36]
  viability, T/C: 31.5%

## CC(Nc1ccc2c(c1)OCCn1cc(N3C(=O)OCC3C(F)F)nc1-2)C(N)=O (stereo not drawn) + CNC(=O)c1ccc(Nc2nc(OC3CCCC3)c3c(-c4ccc5nc(C)oc5c4)c[nH]c3n2)c(OC)c1
Second compound 0.0316 µM
  IC50: 1790 nM
Second compound 0.1 µM
  IC50: 41.7 nM
Second compound 0.316 µM
  IC50: < 31.6 nM
Second compound 1 µM
  IC50: < 31.6 nM
Second compound 3.16 µM
  IC50: < 31.6 nM
Second compound 10 µM
  IC50: < 31.6 nM
[1]
  viability, T/C: 86.1%
[2]
  viability, T/C: 93.9%
[3]
  viability, T/C: 63.2%
[4]
  viability, T/C: 57.6%
[5]
  viability, T/C: 46.6%
[6]
  viability, T/C: 30.5%
[7]
  viability, T/C: 53.9%
[8]
  viability, T/C: 39.9%
[9]
  viability, T/C: 35.2%
[10]
  viability, T/C: 29.4%
[11]
  viability, T/C: 20.1%
[12]
  viability, T/C: 14.7%
[13]
  viability, T/C: 30.4%
[14]
  viability, T/C: 24.3%
[15]
  viability, T/C: 16.9%
[16]
  viability, T/C: 11.4%
[17]
  viability, T/C: 10.2%
[18]
  viability, T/C: 7.7%
[19]
  viability, T/C: 20.6%
[20]
  viability, T/C: 16.4%
[21]
  viability, T/C: 12.4%
[22]
  viability, T/C: 11.2%
[23]
  viability, T/C: 7.78%
[24]
  viability, T/C: 6.87%
[25]
  viability, T/C: 20.8%
[26]
  viability, T/C: 15%
[27]
  viability, T/C: 11.1%
[28]
  viability, T/C: 10.6%
[29]
  viability, T/C: 7.84%
[30]
  viability, T/C: 5.24%
[31]
  viability, T/C: 24.5%
[32]
  viability, T/C: 19.6%
[33]
  viability, T/C: 10.9%
[34]
  viability, T/C: 9.69%
[35]
  viability, T/C: 6.97%
[36]
  viability, T/C: 4.12%

## COc1c(OCCCN2CCOCC2)ccc2c3n(c(=NC(=O)c4cnc(N)nc4)nc12)CCN3 + CNC(=O)c1ccc(Nc2nc(OC3CCCC3)c3c(-c4ccc5nc(C)oc5c4)c[nH]c3n2)c(OC)c1
Second compound 0.0316 µM
  IC50: 29.9 nM
Second compound 0.1 µM
  IC50: < 3.16 nM
Second compound 0.316 µM
  IC50: < 3.16 nM
Second compound 1 µM
  IC50: < 3.16 nM
Second compound 3.16 µM
  IC50: < 3.16 nM
Second compound 10 µM
  IC50: < 3.16 nM
Second compound 0.0316 µM, first compound 0.00316 µM
  viability, T/C: 86.7%
Second compound 0.0316 µM, first compound 0.01 µM
  viability, T/C: 93.3%
[1]
  viability, T/C: 47.4%
[2]
  viability, T/C: 20%
[3]
  viability, T/C: 13.3%
[4]
  viability, T/C: 7.3%
Second compound 0.1 µM, first compound 0.00316 µM
  viability, T/C: 49.4%
Second compound 0.1 µM, first compound 0.01 µM
  viability, T/C: 42.1%
[7]
  viability, T/C: 23.9%
[8]
  viability, T/C: 9.52%
[9]
  viability, T/C: 9.27%
[10]
  viability, T/C: 5.48%
Second compound 0.316 µM, first compound 0.00316 µM
  viability, T/C: 29.3%
Second compound 0.316 µM, first compound 0.01 µM
  viability, T/C: 22.8%
[13]
  viability, T/C: 12.3%
[14]
  viability, T/C: 6.69%
[15]
  viability, T/C: 6.54%
[16]
  viability, T/C: 3.73%
Second compound 1 µM, first compound 0.00316 µM
  viability, T/C: 17.2%
Second compound 1 µM, first compound 0.01 µM
  viability, T/C: 14.2%
[19]
  viability, T/C: 9.1%
[20]
  viability, T/C: 6.05%
[21]
  viability, T/C: 5.94%
[22]
  viability, T/C: 2.82%
Second compound 3.16 µM, first compound 0.00316 µM
  viability, T/C: 17%
Second compound 3.16 µM, first compound 0.01 µM
  viability, T/C: 15%
[25]
  viability, T/C: 8.99%
[26]
  viability, T/C: 4.81%
[27]
  viability, T/C: 4.85%
[28]
  viability, T/C: 1.73%
Second compound 10 µM, first compound 0.00316 µM
  viability, T/C: 21%
Second compound 10 µM, first compound 0.01 µM
  viability, T/C: 14.5%
[31]
  viability, T/C: 6.54%
[32]
  viability, T/C: 6.2%
[33]
  viability, T/C: 3.21%
[34]
  viability, T/C: 2.06%
